Patent US12492173B2, “Herbicidal substituted N-tetrazolyl aryl carboxamides” (Bayer Aktiengesellschaft, priority 2019, dated 2025)

Columns and labels:
Format in all cases: in vivo
Details in all cases: comparative experiment, 20 g of a.i./ha
[1] = system: Matricaria inodora; test: Pre-emergence herbicidal action, MATIN; design: key to Herbicidal action against MATIN: % activity: 100 = plants have died, 0 = like control plants
Method in brief: (§1)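 Application took place on the soil surface immediately after sowing into sandy loam, using aqueous WP or EC preparations with 0.2% wetting agent. Visual percent scoring followed 3 weeks later, untreated pots serving as reference.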

[2] = system: Stellaria media; test: Pre-emergence herbicidal action, STEME; design: key to Herbicidal action against STEME: % activity: 100 = plants have died, 0 = like control plants
Method in brief: as §1

[3] = system: Veronica persica; test: Pre-emergence herbicidal action, VERPE; design: key to Herbicidal action against VERPE: % activity: 100 = plants have died, 0 = like control plants
Method in brief: as §1

[4] = system: Pharbitis purpurea; test: Pre-emergence herbicidal action, PHBPU
Method in brief: as §1

[5] = system: Viola tricolor; test: Pre-emergence herbicidal action, VIOTR; design: key to Herbicidal action against VIOTR: % activity: 100 = plants have died, 0 = like control plants
Method in brief: as §1

[6] = system: Avena fatua; test: Pre-emergence herbicidal action, AVEFA
From the text: 1. Pre-Emergence Herbicidal Action Against Harmful Plants Seeds of monocotyledonous and dicotyledonous weed plants and crop plants are laid out in sandy loam soil in wood-fiber pots and covered with soil. The compounds of the invention, formulated in the form of wettable powders (WP) or as emulsion concentrates (EC), are then applied to the surface of the covering soil in the form of an aqueous suspension or emulsion at a water application rate equating to 600 to 800 l/ha, with addition of 0.2% wetting agent. After the treatment, the pots are placed in a greenhouse and kept under good growth conditions for the trial plants. The damage to the test plants is scored visually after a test period of 3 weeks by comparison with untreated controls (herbicidal activity in percent (%): 100% activity=the plants have died, 0% activity=like control plants). […] The tables below illustrate, in an exemplary manner, the post-emergence herbicidal action of the compounds according to the invention, the herbicidal activity being stated in percent. [table] In the experiments that follow, herbicidal action of numerous inventive compounds and the known compounds that are structurally closest from D1 (WO 2012/028579 A1) and D2 (WO 2018/202535 A1) were compared under the above-specified conditions by the pre-emergence and post-emergence method. […]

With `CSCc1c(Cl)ccc(C(=O)Nc2nnnn2C)c1C` [Example 1-46] the “Herbicidal action against MATIN” value [1] was 80, the “Herbicidal action against STEME” value [2] was 90 and the “Herbicidal action against VERPE” value [3] was 50. The “Herbicidal action against PHBPU” value [4] was 40, the “Herbicidal action against VIOTR” value [5] was 70 and the “Herbicidal action against AVEFA” value [6] was 20.
